Results taken from article PMC10010643 (Cancer Chemotherapy and Pharmacology, 2023).

Assay: Safety and tolerability, Part A single ascending-dose phase in healthy participants
Type: in vivo, human
Experimental: A further two cohorts were recruited. […] Each individual participated in one treatment period only, with the exception of the food-effect cohort (cohort A3) in which there were two treatment periods separated by at least 7 days washout. Participants resided at the Clinical Research Unit (CRU) from 1 day ahead of dosing (day − 1) to day 3 and returned for a follow-up visit 5–7 days after their final dose. For all cohorts, doses were administered in the fasted state in the morning of day 1 of Treatment Period 1. In the food-effect cohort, doses were given 30 min after the start of a high-fat breakfast (973 calories total: approximately 150 protein calories, 250 carbohydrate calories, and 500–600 fat calories) on day 1 of Treatment Period 2. For cohorts A1 to A5 in Treatment Period 1, dosing occurred such that one pair (one active and one placebo) were dosed at least 24 h before the remaining participants. Continuation to dose those who remained was at the investigator’s discretion. Escalating doses were administered following satisfactory sponsor and investigator review of the safety and tolerability data (up to 48 h post-final dose) and PK data (up to 24 h post-final dose) from the lower dose levels.
Safety and tolerability assessments included adverse event (AE) monitoring, physical examinations, laboratory assessments (hematology, clinical chemistry, and urinalysis), vital signs (blood pressure, pulse rate, and body temperature) and ECG.
No formal statistical assessment was performed for the safety analysis.

[1] = Part A 50 mg (1 x 50 mg), fasted
[2] = Part A 50 mg (10 x 5 mg), fasted

Q: Which “TEAE Pain, participants” value [1] does the source give for `OC[C@H]1O[C@H](Sc2cncc(Br)c2)[C@H](O)[C@@H](n2cc(-c3cc(F)c(F)c(F)c3)nn2)[C@H]1O` [GB1211] here?
A: 0 n (%)

Q: And the “TEAE Rash, participants” value [1]?
A: 0 n (%)

Q: And the “TEAE Respiratory, thoracic and mediastinal disorders, no. of AEs” value [1]?
A: 1

Q: And the “TEAE Respiratory, thoracic and mediastinal disorders, participants” value (shortened to “TEAE Respiratory … participants”) [1]?
A: 1 (16.7%) n (%)

Q: And the “TEAE Skin and subcutaneous tissue disorders, participants” value [1]?
A: 0 n (%)

Q: What about the “TEAE Wound, participants” value [1] of the same compound?
A: 0 n (%)

Q: And the “TEAE Back pain, participants” value (Part A 50 mg (1 x 50 mg), fed)?
A: 0 n (%)

Q: And the “TEAE Constipation, participants” value (Part A 50 mg (1 x 50 mg), fed)?
A: 0 n (%)

Q: And the “TEAE Cough, participants” value (Part A 50 mg (1 x 50 mg), fed)?
A: 0 n (%)

Q: What about the “TEAE Decreased appetite, participants” value (Part A 50 mg (1 x 50 mg), fed) of the same compound?
A: 0 n (%)

Q: And the “TEAE Diarrhea, participants” value (Part A 50 mg (1 x 50 mg), fed)?
A: 0 n (%)

Q: What about the “TEAE Dry mouth, participants” value (Part A 50 mg (1 x 50 mg), fed) of the same compound?
A: 0 n (%)

Q: And the “TEAE Dry skin, no. of AEs” value (Part A 50 mg (1 x 50 mg), fed)?
A: 1

Q: And the “TEAE Dry skin, participants” value (Part A 50 mg (1 x 50 mg), fed)?
A: 1 (16.7%) n (%)

Q: And the “TEAE Dyspepsia, participants” value (Part A 50 mg (1 x 50 mg), fed)?
A: 0 n (%)

Q: And the “TEAE Gastrointestinal disorders, participants” value (Part A 50 mg (1 x 50 mg), fed)?
A: 0 n (%)

Q: What about the “TEAE General disorders and administration site conditions, participants” value (Part A 50 mg (1 x 50 mg), fed) of the same compound?
A: 0 n (%)

Q: What about the “TEAE Headache, participants” value (Part A 50 mg (1 x 50 mg), fed) of the same compound?
A: 0 n (%)

Q: And the “TEAE Infections and infestations, participants” value (Part A 50 mg (1 x 50 mg), fed)?
A: 0 n (%)

Q: What about the “TEAE Injury, poisoning and procedural complications, participants” value (shortened to “TEAE Injury”) (Part A 50 mg (1 x 50 mg), fed) of the same compound?
A: 0 n (%)

Q: And the “TEAE Medical device site reaction, participants” value (Part A 50 mg (1 x 50 mg), fed)?
A: 0 n (%)

Q: What about the “TEAE Metabolism and nutrition disorders, participants” value (Part A 50 mg (1 x 50 mg), fed) of the same compound?
A: 0 n (%)

Q: And the “TEAE Musculoskeletal and connective tissue disorders, participants” value (Part A 50 mg (1 x 50 mg), fed)?
A: 0 n (%)

Q: What about the “TEAE Nasopharyngitis, participants” value (Part A 50 mg (1 x 50 mg), fed) of the same compound?
A: 0 n (%)

Q: And the “TEAE Nervous system disorders, participants” value (“TEAE Nervous system disorders” for short) (Part A 50 mg (1 x 50 mg), fed)?
A: 0 n (%)

Q: What about the “TEAE Pain, participants” value (Part A 50 mg (1 x 50 mg), fed) of the same compound?
A: 0 n (%)

Q: And the “TEAE Rash, participants” value (Part A 50 mg (1 x 50 mg), fed)?
A: 0 n (%)

Q: What about the “TEAE Respiratory … participants” value (Part A 50 mg (1 x 50 mg), fed) of the same compound?
A: 0 n (%)

Q: What about the “TEAE Skin and subcutaneous tissue disorders, no. of AEs” value (Part A 50 mg (1 x 50 mg), fed) of the same compound?
A: 1

Q: What about the “TEAE Skin and subcutaneous tissue disorders, participants” value (Part A 50 mg (1 x 50 mg), fed) of the same compound?
A: 1 (16.7%) n (%)

Q: And the “TEAE Wound, participants” value (Part A 50 mg (1 x 50 mg), fed)?
A: 0 n (%)

Q: And the “TEAE Back pain, no. of AEs” value [2]?
A: 1

Q: What about the “TEAE Back pain, participants” value [2] of the same compound?
A: 1 (16.7%) n (%)

Q: And the “TEAE Constipation, participants” value [2]?
A: 0 n (%)

Q: And the “TEAE Cough, participants” value [2]?
A: 0 n (%)

Q: And the “TEAE Decreased appetite, participants” value [2]?
A: 0 n (%)

Q: And the “TEAE Diarrhea, participants” value [2]?
A: 0 n (%)

Q: And the “TEAE Dry mouth, participants” value [2]?
A: 0 n (%)

Q: What about the “TEAE Dry skin, participants” value [2] of the same compound?
A: 0 n (%)

Q: And the “TEAE Dyspepsia, participants” value [2]?
A: 0 n (%)

Q: What about the “TEAE Gastrointestinal disorders, participants” value [2] of the same compound?
A: 0 n (%)

Q: And the “TEAE General disorders and administration site conditions, participants” value [2]?
A: 0 n (%)

Q: And the “TEAE Headache, participants” value [2]?
A: 0 n (%)

Q: What about the “TEAE Infections and infestations, participants” value [2] of the same compound?
A: 0 n (%)

Q: And the “TEAE Injury” value [2]?
A: 0 n (%)

Q: What about the “TEAE Medical device site reaction, participants” value [2] of the same compound?
A: 0 n (%)

Q: What about the “TEAE Metabolism and nutrition disorders, participants” value [2] of the same compound?
A: 0 n (%)

Q: What about the “TEAE Musculoskeletal and connective tissue disorders, no. of AEs” value [2] of the same compound?
A: 1

Q: What about the “TEAE Musculoskeletal and connective tissue disorders, participants” value [2] of the same compound?
A: 1 (16.7%) n (%)

Q: What about the “TEAE Nasopharyngitis, participants” value [2] of the same compound?
A: 0 n (%)

Q: What about the “TEAE Nervous system disorders” value [2] of the same compound?
A: 0 n (%)

Q: What about the “TEAE Pain, participants” value [2] of the same compound?
A: 0 n (%)

Q: What about the “TEAE Rash, participants” value [2] of the same compound?
A: 0 n (%)

Q: What about the “TEAE Respiratory … participants” value [2] of the same compound?
A: 0 n (%)

Q: What about the “TEAE Skin and subcutaneous tissue disorders, participants” value [2] of the same compound?
A: 0 n (%)

Q: What about the “TEAE Wound, participants” value [2] of the same compound?
A: 0 n (%)

Q: And the “TEAE Back pain, participants” value (Part A 100 mg, fasted)?
A: 0 n (%)

Q: What about the “TEAE Constipation, participants” value (Part A 100 mg, fasted) of the same compound?
A: 0 n (%)

Q: What about the “TEAE Cough, participants” value (Part A 100 mg, fasted) of the same compound?
A: 0 n (%)

Q: And the “TEAE Decreased appetite, participants” value (Part A 100 mg, fasted)?
A: 0 n (%)

Q: What about the “TEAE Diarrhea, participants” value (Part A 100 mg, fasted) of the same compound?
A: 0 n (%)

Q: What about the “TEAE Dry mouth, participants” value (Part A 100 mg, fasted) of the same compound?
A: 0 n (%)

Q: What about the “TEAE Dry skin, participants” value (Part A 100 mg, fasted) of the same compound?
A: 0 n (%)

Q: And the “TEAE Dyspepsia, no. of AEs” value (Part A 100 mg, fasted)?
A: 1

Q: And the “TEAE Dyspepsia, participants” value (Part A 100 mg, fasted)?
A: 1 (16.7%) n (%)

Q: What about the “TEAE Gastrointestinal disorders, no. of AEs” value (Part A 100 mg, fasted) of the same compound?
A: 1

Q: And the “TEAE Gastrointestinal disorders, participants” value (Part A 100 mg, fasted)?
A: 1 (16.7%) n (%)

Q: And the “TEAE General disorders and administration site conditions, participants” value (Part A 100 mg, fasted)?
A: 0 n (%)

Q: And the “TEAE Headache, participants” value (Part A 100 mg, fasted)?
A: 0 n (%)

Q: What about the “TEAE Infections and infestations, no. of AEs” value (Part A 100 mg, fasted) of the same compound?
A: 1

Q: What about the “TEAE Infections and infestations, participants” value (Part A 100 mg, fasted) of the same compound?
A: 1 (16.7%) n (%)

Q: What about the “TEAE Injury” value (Part A 100 mg, fasted) of the same compound?
A: 0 n (%)

Q: What about the “TEAE Medical device site reaction, participants” value (Part A 100 mg, fasted) of the same compound?
A: 0 n (%)

Q: What about the “TEAE Metabolism and nutrition disorders, participants” value (Part A 100 mg, fasted) of the same compound?
A: 0 n (%)

Q: And the “TEAE Musculoskeletal and connective tissue disorders, participants” value (Part A 100 mg, fasted)?
A: 0 n (%)

Q: What about the “TEAE Nasopharyngitis, no. of AEs” value (Part A 100 mg, fasted) of the same compound?
A: 1

Q: What about the “TEAE Nasopharyngitis, participants” value (Part A 100 mg, fasted) of the same compound?
A: 1 (16.7%) n (%)

Q: And the “TEAE Nervous system disorders” value (Part A 100 mg, fasted)?
A: 0 n (%)
